Results from patent US8637542B2, “Kinase inhibitors and methods of use” (Intellikine, Inc., priority 2008, dated 2014).

Legend:
Assay type in all cases: biochemical
[1] = molecular target: T1, mTORC (Homo sapiens, UniProt P42345); experiment: In-vitro mTORC inhibition assay
T1 construct: purchased Invitrogen
Description: The compounds described herein can be tested against recombinant mTOR (Invitrogen) in an assay containing 50 mM HEPES, pH 7.5, 1 mM EGTA, 10 mM MgCl2, 2.5 mM, 0.01% Tween, 10 μM ATP (2.5 μCi of […]), and 3 μg/mL BSA. Rat recombinant PHAS-1/4EBP1 (Calbiochem; 2 mg/mL) is used as a substrate. Reactions are terminated by spotting onto nitrocellulose, which is washed with 1M NaCl/1% phosphoric acid (approximately 6 times, 5-10 minutes each). Sheets are dried and the transferred radioactivity quantitated by phosphorimaging.
Other kits or systems for assaying mTOR activity are commercially available. For instance, one can use Invitrogen's LanthaScreen™ Kinase assay to test the inhibitors of mTOR disclosed herein. This assay is a time resolved FRET platform that measures the phosphorylation of GFP labeled 4EBP1 by mTOR kinase. The kinase reaction is performed in a white 384 well microtitre plate. The total reaction volume is 20 ul per well and the reaction buffer composition is 50 mM HEPES pH7.5, 0.01% Polysorbate 20, 1 mM EGTA, 10 mM MnCl2, and 2 mM DTT. In the first step, each well receives 2 ul of test compound in 20% dimethylsulphoxide resulting in a 2% DMSO final concentration. Next, 8 ul of mTOR diluted in reaction buffer is added per well for a 60 ng/ml final concentration. To start the reaction, 10 ul of an ATP/GFP-4EBP1 mixture (diluted in reaction buffer) is added per well for a final concentration of 10 uM ATP and 0.5 uM GFP-4EBP1. The plate is sealed and incubated for 1 hour at room temperature. The reaction is stopped by adding 10 ul per well of a Tb-anti-pT46 4EBP1 antibody/EDTA mixture (diluted in TR-FRET buffer) for a final concentration of 1.3 nM antibody and 6.7 mM EDTA. The plate is sealed, incubated for 1 hour at room temperature, and then read on a plate reader set up for LanthaScreen™ TR-FRET. Data is analyzed and IC50s are generated using GraphPad Prism 5.

[2] = molecular target: T2, PI3K α (Homo sapiens, UniProt P42336); experiment: In-vitro PI3K α inhibition assay
T2 construct: purchased Upstate
Description: (§1) Class I PI3-Ks can be either purchased (p110α/p85α, p110β/p85α, p110β/p85α from Upstate, and p110γ from Sigma) or expressed as previously described (Knight et al., 2004). IC50 values are measured using either a standard TLC assay for lipid kinase activity (described below) or a high-throughput membrane capture assay. Kinase reactions are performed by preparing a reaction mixture containing kinase, inhibitor (2% DMSO final concentration), buffer (25 mM HEPES, pH 7.4, 10 mM MgCl2), and freshly sonicated phosphatidylinositol ([…]). Reactions are initiated by the addition of ATP containing 10 μCi of γ-32P-ATP to a final concentration 10 or 100 μM and allowed to proceed for 5 minutes at room temperature. For TLC analysis, reactions are then terminated by the addition of 105 μl 1N HCl followed by 160 μl CHCl3:MeOH (1:1). The biphasic mixture is vortexed, briefly centrifuged, and the organic phase is transferred to a new tube using a gel loading pipette tip precoated with CHCl3. This extract is spotted on TLC plates and developed for 3-4 hours in a 65:35 solution of n-propanol:1M acetic acid. The TLC plates are then dried, exposed to a phosphorimager screen (Storm, Amersham), and quantitated. For each compound, kinase activity is measured at 10-12 inhibitor concentrations representing two-fold dilutions from the highest concentration tested (typically, 200 μM).
Other commercial kits or systems for assaying PI3-K activities are available. The commercially available kits or systems can be used to screen for inhibitors and/or agonists of PI3-Ks including but not limited to PI3-Kinase α, β, δ, and γ. An exemplary system is PI3-Kinase (human) HTRF™ Assay from Upstate. […] Briefly, the assay is a time resolved FRET assay that indirectly measures PI3 product formed by the activity of a PI3-K. The kinase reaction is performed in a microtitre plate (e.g., a 384 well microtitre plate). […] The plate is sealed, incubated for 1 hour at room temperature, and then read on an appropriate plate reader. Data is analyzed and IC50s are generated using GraphPad Prism 5.

[3] = molecular target: T3, PI3K β (Homo sapiens, UniProt P42338); experiment: In-vitro PI3K β inhibition assay
T3 construct: purchased Upstate
Description: as §1, with “The biphasic mixture is vortexed, briefly centrifuged, and the organic phase is transferred to a new tube using a gel loading pipette tip precoated with CHCl3. This extract is spotted on TLC plates and developed for 3-4 hours in a 65:35 solution of n-propanol:1M acetic acid.” left out
(§2) Other commercial kits or systems for assaying PI3-K activities are available. […] The plate is sealed, incubated for 1 hour at room temperature, and then read on an appropriate plate reader. Data is analyzed and IC50s are generated using GraphPad Prism 5.

[4] = molecular target: T4, PI3K δ (Homo sapiens, UniProt O00329); experiment: In-vitro PI3K δ inhibition assay
T4 construct: purchased Upstate
Description: as §1, with “The biphasic mixture is vortexed, briefly centrifuged, and the organic phase is transferred to a new tube using a gel loading pipette tip precoated with CHCl3. This extract is spotted on TLC plates and developed for 3-4 hours in a 65:35 solution of n-propanol:1M acetic acid.” left out
as §2

T2 sequence (P42336 whole entry): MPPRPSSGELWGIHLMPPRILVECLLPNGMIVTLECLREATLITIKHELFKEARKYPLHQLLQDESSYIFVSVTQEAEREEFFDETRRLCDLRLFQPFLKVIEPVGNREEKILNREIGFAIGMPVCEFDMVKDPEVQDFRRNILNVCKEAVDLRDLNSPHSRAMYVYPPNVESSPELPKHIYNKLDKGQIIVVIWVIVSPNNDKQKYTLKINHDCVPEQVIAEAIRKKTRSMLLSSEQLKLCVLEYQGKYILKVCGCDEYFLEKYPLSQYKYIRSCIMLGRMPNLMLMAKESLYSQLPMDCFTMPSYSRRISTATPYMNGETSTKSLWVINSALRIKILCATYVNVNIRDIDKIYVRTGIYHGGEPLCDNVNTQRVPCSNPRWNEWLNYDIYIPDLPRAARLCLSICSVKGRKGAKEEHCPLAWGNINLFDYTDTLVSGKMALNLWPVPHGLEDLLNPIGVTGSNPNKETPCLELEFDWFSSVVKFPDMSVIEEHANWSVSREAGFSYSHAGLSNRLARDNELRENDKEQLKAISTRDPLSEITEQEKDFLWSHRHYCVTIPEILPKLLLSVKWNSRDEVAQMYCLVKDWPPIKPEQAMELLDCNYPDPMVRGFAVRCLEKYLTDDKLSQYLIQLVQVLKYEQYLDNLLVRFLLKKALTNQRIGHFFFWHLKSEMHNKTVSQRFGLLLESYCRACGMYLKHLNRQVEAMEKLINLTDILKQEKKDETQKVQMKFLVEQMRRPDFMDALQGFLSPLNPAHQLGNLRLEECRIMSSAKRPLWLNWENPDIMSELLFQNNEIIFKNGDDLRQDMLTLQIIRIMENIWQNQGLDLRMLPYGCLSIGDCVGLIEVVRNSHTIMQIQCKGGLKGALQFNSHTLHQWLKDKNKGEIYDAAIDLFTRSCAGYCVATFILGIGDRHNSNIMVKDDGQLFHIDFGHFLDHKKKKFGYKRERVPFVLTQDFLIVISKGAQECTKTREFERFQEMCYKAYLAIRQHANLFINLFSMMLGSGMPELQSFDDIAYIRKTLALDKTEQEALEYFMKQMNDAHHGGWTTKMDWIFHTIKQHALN
T2 sequence (P27986 whole entry partner): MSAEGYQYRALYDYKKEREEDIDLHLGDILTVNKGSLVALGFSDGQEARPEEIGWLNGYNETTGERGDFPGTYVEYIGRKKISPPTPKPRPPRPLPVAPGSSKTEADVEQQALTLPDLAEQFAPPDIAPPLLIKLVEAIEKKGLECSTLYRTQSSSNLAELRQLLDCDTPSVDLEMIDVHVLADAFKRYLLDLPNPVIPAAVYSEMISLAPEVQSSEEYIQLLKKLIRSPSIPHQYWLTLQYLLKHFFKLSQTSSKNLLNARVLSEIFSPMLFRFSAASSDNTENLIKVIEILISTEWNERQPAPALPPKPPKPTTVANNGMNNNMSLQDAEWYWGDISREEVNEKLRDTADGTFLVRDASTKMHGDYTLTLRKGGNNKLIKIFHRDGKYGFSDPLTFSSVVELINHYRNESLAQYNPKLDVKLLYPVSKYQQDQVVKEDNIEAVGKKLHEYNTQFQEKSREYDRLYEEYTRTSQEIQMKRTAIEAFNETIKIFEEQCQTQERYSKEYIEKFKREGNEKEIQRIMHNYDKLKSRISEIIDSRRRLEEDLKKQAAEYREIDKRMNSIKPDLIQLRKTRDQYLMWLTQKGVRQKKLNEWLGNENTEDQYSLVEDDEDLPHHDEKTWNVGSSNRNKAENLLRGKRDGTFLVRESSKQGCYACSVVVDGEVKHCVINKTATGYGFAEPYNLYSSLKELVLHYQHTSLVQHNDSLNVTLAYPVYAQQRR
T1 sequence (P42345 1360-2549 limits assumed): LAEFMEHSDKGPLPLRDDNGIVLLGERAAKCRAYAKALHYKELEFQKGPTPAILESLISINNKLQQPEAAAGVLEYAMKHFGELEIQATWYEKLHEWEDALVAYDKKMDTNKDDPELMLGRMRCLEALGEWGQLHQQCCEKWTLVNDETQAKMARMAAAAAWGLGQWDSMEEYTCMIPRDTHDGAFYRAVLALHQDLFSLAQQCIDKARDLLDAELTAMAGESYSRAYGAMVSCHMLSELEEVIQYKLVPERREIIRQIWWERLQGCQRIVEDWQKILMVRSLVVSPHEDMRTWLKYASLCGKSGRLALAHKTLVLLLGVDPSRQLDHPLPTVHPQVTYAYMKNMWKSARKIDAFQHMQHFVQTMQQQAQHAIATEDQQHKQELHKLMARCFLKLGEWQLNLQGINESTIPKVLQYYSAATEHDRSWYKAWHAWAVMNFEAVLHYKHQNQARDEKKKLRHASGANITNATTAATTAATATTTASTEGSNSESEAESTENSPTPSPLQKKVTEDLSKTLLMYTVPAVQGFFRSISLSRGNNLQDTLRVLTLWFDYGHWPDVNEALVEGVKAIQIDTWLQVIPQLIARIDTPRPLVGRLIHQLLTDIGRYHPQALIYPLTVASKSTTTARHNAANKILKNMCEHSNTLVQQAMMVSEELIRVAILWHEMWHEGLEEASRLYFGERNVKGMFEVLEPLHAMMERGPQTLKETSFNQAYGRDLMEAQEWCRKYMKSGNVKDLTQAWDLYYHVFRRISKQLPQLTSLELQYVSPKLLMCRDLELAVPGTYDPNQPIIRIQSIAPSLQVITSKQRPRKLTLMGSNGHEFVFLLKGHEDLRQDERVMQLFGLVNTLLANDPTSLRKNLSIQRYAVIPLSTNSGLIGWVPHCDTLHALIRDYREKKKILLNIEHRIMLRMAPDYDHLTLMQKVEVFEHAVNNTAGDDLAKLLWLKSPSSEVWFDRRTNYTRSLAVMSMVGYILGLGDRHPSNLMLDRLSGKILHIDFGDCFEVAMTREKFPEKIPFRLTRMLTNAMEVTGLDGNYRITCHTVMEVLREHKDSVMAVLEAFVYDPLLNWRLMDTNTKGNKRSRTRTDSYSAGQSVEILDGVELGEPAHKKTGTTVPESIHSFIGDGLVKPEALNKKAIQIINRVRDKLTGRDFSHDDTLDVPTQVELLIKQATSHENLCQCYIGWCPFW
T3 sequence (P42338 whole entry): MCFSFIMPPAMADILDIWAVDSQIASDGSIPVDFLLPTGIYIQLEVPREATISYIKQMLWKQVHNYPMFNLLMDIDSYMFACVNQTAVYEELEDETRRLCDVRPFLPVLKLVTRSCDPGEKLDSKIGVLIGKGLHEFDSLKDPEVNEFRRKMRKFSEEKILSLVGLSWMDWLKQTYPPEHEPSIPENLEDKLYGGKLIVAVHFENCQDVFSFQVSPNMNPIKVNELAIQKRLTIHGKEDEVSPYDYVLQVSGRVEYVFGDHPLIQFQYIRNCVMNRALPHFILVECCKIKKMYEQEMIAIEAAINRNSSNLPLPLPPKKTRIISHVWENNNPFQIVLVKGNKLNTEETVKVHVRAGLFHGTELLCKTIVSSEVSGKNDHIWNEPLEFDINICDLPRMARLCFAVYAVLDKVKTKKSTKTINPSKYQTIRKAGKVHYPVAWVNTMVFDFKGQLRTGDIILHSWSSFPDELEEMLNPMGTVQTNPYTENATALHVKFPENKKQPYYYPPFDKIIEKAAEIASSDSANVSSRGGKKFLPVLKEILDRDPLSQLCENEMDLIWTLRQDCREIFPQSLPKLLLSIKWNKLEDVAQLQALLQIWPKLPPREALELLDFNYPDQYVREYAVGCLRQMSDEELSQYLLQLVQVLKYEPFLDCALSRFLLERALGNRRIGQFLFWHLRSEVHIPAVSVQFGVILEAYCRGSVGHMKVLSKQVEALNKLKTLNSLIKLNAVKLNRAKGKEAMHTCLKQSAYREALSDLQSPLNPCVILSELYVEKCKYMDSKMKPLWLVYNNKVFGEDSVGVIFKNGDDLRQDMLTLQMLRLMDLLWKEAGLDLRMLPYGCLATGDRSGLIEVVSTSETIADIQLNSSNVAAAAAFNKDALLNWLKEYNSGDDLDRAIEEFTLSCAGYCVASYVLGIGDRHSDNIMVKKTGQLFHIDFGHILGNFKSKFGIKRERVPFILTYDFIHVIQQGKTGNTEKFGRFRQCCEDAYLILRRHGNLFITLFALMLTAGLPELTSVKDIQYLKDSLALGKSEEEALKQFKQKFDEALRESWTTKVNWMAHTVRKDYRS
T3 sequence (P27986 whole entry partner): as the sequence (P27986 whole entry partner) above

Structure (SMILES) | IC50 [1] [nM] | IC50 [2] [nM] | IC50 [3] [nM] | IC50 [4] [nM]
CC(C)n1nc(-c2ccc3oc(N)nc3c2)c2c(N)nccc21 [Compound 4] | ≤ 1000 | > 1000 | > 1000 | –
CC(C)n1nc(-c2cc3cc(O)ccc3[nH]2)c2c(N)nccc21 [Compound 1] | ≤ 1000 | – | – | –
CC(C)n1nc(-c2ccc3onc(N)c3c2)c2c(N)nccc21 [Compound 2] | > 1000 | > 1000 | – | –
CC(C)n1nc(-c2cnc3[nH]ccc3c2)c2c(N)nccc21 [Compound 3] | > 1000 | > 1000 | > 1000 | > 1000
